Earlier results, collected in patent US6943160B2, “Morpholine derivatives as antagonists of orexin receptors” (SmithKline Beecham plc, priority 2000, dated 2005).

Key:
freely-feeding rats = details: central administration, 4 hour time period
orexin receptors = details: central administration at onset of normal sleep period, rat

In the case of “orexin-A: ligand (agonist) of the orexin receptors; human orexin-A has sequence SEQ ID NO: 1, pyroEPLPDCCRQKTCSCRLYELLHGAGNHAAGILTL-NH2”, the “increase in food intake over control rats receiving vehicle” value (freely-feeding rats) is listed as “approximately four-fold” and the effect on arousal (orexin receptors) is listed as “dose-related increase in arousal”.
